What was measured:
[1] = biological target: T1, B1R receptor of the rat (CHO K1 cells stably transfected with the B1R gene of the rat) (Rattus norvegicus, UniProt P97583); experiment: Functional study on the bradykinin receptor 1 (B1R), Ca2+ fluorescence (Fluo-4) FLIPR/Novostar assay, rB1R cells; type: cell-based; conditions: CHO-K1, 10 μM, read-out: % inhibition (rat B1R) at 10 μM
T1 construct: expressed in transfected cells; host or cells: CHO K1 cells (Chinese hamster ovary), stably transfected
T1 sequence (P97583 1-337): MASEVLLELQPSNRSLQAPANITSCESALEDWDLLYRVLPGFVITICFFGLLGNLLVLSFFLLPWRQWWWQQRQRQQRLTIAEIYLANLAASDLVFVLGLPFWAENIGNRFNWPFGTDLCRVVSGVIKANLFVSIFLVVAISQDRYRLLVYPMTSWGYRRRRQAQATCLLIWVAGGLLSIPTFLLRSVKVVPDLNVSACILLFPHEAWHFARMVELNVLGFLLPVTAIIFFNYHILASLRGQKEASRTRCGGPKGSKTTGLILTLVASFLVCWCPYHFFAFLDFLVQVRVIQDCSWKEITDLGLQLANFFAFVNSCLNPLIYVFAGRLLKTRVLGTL
Procedure, shortened: (§1)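 Ca2+ influx (Fluo-4, peak fluorescence, λex 488/λem 540 nm) was measured in CHO K1 lines expressing rat or human B1R. After a 10 μM test-compound pre-addition scoring % activation, cells received EC80 agonist: Des-Arg9-bradykinin for rat, Lys-Des-Arg9-bradykinin for human. Antagonism was expressed as % of maximum inhibition, with IC50 from varied concentrations.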

[2] = biological target: T2, human B1R receptor (CHO K1 cells stably transfected with the human B1R gene) (Homo sapiens, UniProt P46663); experiment: Functional study on the bradykinin receptor 1 (B1R), Ca2+ fluorescence (Fluo-4) FLIPR/Novostar assay, hB1R cells; type: cell-based; conditions: CHO-K1, read-out: % inhibition (human B1R) at 10 μM
T2 construct: expressed in transfected cells; host or cells: CHO K1 cells (Chinese hamster ovary), stably transfected
T2 sequence (P46663 1-353): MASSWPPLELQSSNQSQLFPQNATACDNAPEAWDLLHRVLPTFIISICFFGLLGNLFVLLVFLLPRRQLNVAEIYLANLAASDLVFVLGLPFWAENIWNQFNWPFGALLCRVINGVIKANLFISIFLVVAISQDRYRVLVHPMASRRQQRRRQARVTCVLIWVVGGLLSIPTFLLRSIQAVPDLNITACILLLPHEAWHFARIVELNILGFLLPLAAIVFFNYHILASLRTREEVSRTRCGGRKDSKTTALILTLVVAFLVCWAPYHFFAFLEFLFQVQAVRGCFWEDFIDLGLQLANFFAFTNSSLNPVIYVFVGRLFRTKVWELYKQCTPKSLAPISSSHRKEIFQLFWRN
Procedure, shortened: as §1

| Compound | inhibition at 10 µM [1] | inhibition at 10 µM [2] |
| --- | --- | --- |
| CN(C(=O)c1ccc2c(c1)[C@H](NC(=O)C1(c3ccccc3F)CCCC1)CC2)C1CCN(c2ccncc2)CC1 [Example H-47, (3R)-3-[[1-(2-Fluorophenyl)-cyclopentanecarbonyl]amino]-N-methyl-N-(1-pyridin-4-yl-piperidin-4-yl)-2,3-dihydro-1H-indene-5-carboxylic acid amide] | 104% | 100% |
| CN(C(=O)c1ccc2c(c1)[C@H](NC(=O)c1ccccc1Cl)CC2)C1CCN(Cc2ccnc(N3CCCC3)c2)CC1 [Example H-48, (3R)-3-[(2-Chloro-benzoyl)amino]-N-methyl-N-[1-[(2-pyrrolidin-1-yl-pyridin-4-yl)-methyl]-piperidin-4-yl]-2,3-dihydro-1H-indene-5-carboxylic acid amide] | 75% | 11% |
| Cc1cc(N2CCC(CN(C)C(=O)c3ccc4c(c3)[C@H](NC(=O)c3ccccc3Cl)CC4)CC2)ccn1 [Example H-49, (3R)-3-[(2-Chloro-benzoyl)amino]-N-methyl-N-[[1-(2-methyl-pyridin-4-yl)-piperidin-4-yl]-methyl]-2,3-dihydro-1H-indene-5-carboxylic acid amide] | 101% | 85% |
| COc1ccc(N2CCC(N(C)C(=O)c3ccc4c(c3)[C@H](NC(=O)c3ccccc3Cl)CC4)CC2)cc1 [Example H-50, (3R)-3-[(2-Chloro-benzoyl)amino]-N-[1-(4-methoxyphenyl)-piperidin-4-yl]-N-methyl-2,3-dihydro-1H-indene-5-carboxylic acid amide] | 86% | 23% |
| CN(C(=O)c1ccc2c(c1)[C@H](NC(=O)C1(c3ccccc3Cl)CC1)CC2)C1CCN(c2ccncc2)CC1 [Example H-51, (3R)-3-[[1-(2-Chlorophenyl)-cyclopropanecarbonyl]amino]-N-methyl-N-(1-pyridin-4-yl-piperidin-4-yl)-2,3-dihydro-1H-indene-5-carboxylic acid amide] | 105% | 99% |
| Cc1cc(N2CCC(CN(C)C(=O)c3ccc4c(c3)CC[C@H]4N3Cc4cccc(Cl)c4C3=O)CC2)ccn1 [Example H-52, (1R)-1-(4-Chloro-3-oxo-1,2-dihydro-isoindol-2-yl)-N-methyl-N-[[1-(2-methyl-pyridin-4-yl)-piperidin-4-yl]-methyl]-2,3-dihydro-1H-indene-5-carboxylic acid amide] | 73% | 98% |
| CN(C(=O)c1ccc2c(c1)CC[C@H]2N1Cc2cccc(Cl)c2C1=O)C1CCN(Cc2ccnc(N3CCCC3)c2)CC1 [Example H-53, (1R)-1-(4-Chloro-3-oxo-1,2-dihydro-isoindol-2-yl)-N-methyl-N-[1-[(2-pyrrolidin-1-yl-pyridin-4-yl)-methyl]-piperidin-4-yl]-2,3-dihydro-1H-indene-5-carboxylic acid amide] | 50% | 56% |
| CN(C(=O)c1ccc2c(c1)[C@H](NC(=O)c1ccccc1Cl)CC2)C1CCN(c2ccc(Cl)cc2)CC1 [Example H-54, (3R)-3-[(2-Chloro-benzoyl)amino]-N-[1-(4-chlorophenyl)-piperidin-4-yl]-N-methyl-2,3-dihydro-1H-indene-5-carboxylic acid amide] | 93% | 29% |
| Cc1cc(N2CCC(N(C)C(=O)c3ccc4c(c3)[C@H](NC(=O)c3ccccc3Cl)CC4)CC2)ccn1 [Example H-55, (3R)-3-[(2-Chloro-benzoyl)amino]-N-methyl-N-[1-(2-methyl-pyridin-4-yl)-piperidin-4-yl]-2,3-dihydro-1H-indene-5-carboxylic acid amide] | 104% | 99% |
| Cc1cc(N2CCC(CCNC(=O)c3ccc4c(c3)[C@H](NC(=O)c3ccccc3Cl)CC4)CC2)ccn1 [Example H-56, (3R)-3-[(2-Chloro-benzoyl)amino]-N-[2-[1-(2-methyl-pyridin-4-yl)-piperidin-4-yl]-ethyl]-2,3-dihydro-1H-indene-5-carboxylic acid amide] | 102% | 99% |
| CN(C(=O)c1cc2c(cc1F)[C@H](NC(=O)c1ccccc1Cl)CC2)C1CCN(c2ccncc2)CC1 [Example H-57, (1R)-1-[(2-Chloro-benzoyl)amino]-6-fluoro-N-methyl-N-(1-pyridin-4-yl-piperidin-4-yl)-2,3-dihydro-1H-indene-5-carboxylic acid amide] | 100% | 100% |
| CN(C(=O)c1ccc2c(c1)[C@H](NC(=O)C(C)(C)c1ccccc1Cl)CC2)C1CCN(c2ccncc2)CC1 [Example H-58, (3R)-3-[[2-(2-Chlorophenyl)-2-methyl-propanoyl]amino]-N-methyl-N-(1-pyridin-4-yl-piperidin-4-yl)-2,3-dihydro-1H-indene-5-carboxylic acid amide] | 98% | 100% |
| Cc1cc(N2CCC(N(C)C(=O)c3ccc4c(c3)[C@H](NC(=O)c3ccccc3Cl)CC4)CC2)nc(C)n1 [Example H-59, (3R)-3-[(2-Chloro-benzoyl)amino]-N-[1-(2,6-dimethyl-pyrimidin-4-yl)-piperidin-4-yl]-N-methyl-2,3-dihydro-1H-indene-5-carboxylic acid amide] | 103% | 99% |
| CN(C(=O)c1ccc2c(c1)[C@H](NC(=O)c1ccccc1Cl)CC2)C1CCN(c2ccncc2)CC1(C)C (stereo partly drawn) [Example H-60, (3R)-3-[(2-Chloro-benzoyl)amino]-N-(3,3-dimethyl-1-pyridin-4-yl-piperidin-4-yl)-N-methyl-2,3-dihydro-1H-indene-5-carboxylic acid amide] | 103% | 99% |
| CN(C(=O)c1ccc2c(c1)[C@H](NC(=O)c1ccccc1Cl)CC2)C1CCC(c2ccncc2)CC1 (stereo partly drawn) [Example H-61, (3R)-3-[(2-Chloro-benzoyl)amino]-N-methyl-N-(4-pyridin-4-yl-cyclohexyl)-2,3-dihydro-1H-indene-5-carboxylic acid amide] | 77% | 32% |
| Cc1cc(C(=O)N[C@@H]2CCc3ccc(C(=O)N(C)C4CCN(c5ccncc5)CC4)cc32)no1 [Example H-62, 5-Methyl-N-[(1R)-6-[methyl-(1-pyridin-4-yl-piperidin-4-yl)-carbamoyl]-2,3-clihydro-1H-inden-1-yl]-isoxazole-3-carboxylic acid amide] | 99% | 100% |
| CN(C(=O)c1ccc2c(c1)[C@H](NC(=O)CC(F)(F)F)CC2)C1CCN(c2ccncc2)CC1 [Example H-63, (3R)-N-Methyl-N-(1-pyridin-4-yl-piperidin-4-yl)-3-(3,3,3-trifluoro-propanoylamino)-2,3-dihydro-1H-indene-5-carboxylic acid amide] | 96% | 100% |
| CN(CC1CCN(c2ccncc2)CC1)C(=O)c1ccc2c(c1)[C@H](NC(=O)c1ccccc1Cl)CC2 [Example H-64, (3R)-3-[(2-Chloro-benzoyl)amino]-N-methyl-N-[(1-pyridin-4-yl-piperidin-4-yl)-methyl]-2,3-dihydro-1H-indene-5-carboxylic acid amide] | 97% | 96% |
| CC(C)CN(C(=O)c1ccccc1Cl)[C@@H]1CCc2ccc(C(=O)N(C)C3CCN(c4ccncc4)CC3)cc21 [Example H-65, (3R)-3-[(2-Chloro-benzoyl)-(2-methyl-propyl)-amino]-N-methyl-N-(1-pyridin-4-yl-piperidin-4-yl)-2,3-dihydro-1H-indene-5-carboxylic acid amide] | 107% | 100% |
| CN(CCC1CCN(c2ccncc2)CC1)C(=O)c1ccc2c(c1)[C@H](NC(=O)c1ccccc1Cl)CC2 [Example H-66, (3R)-3-[(2-Chloro-benzoyl)amino]-N-methyl-N-[2-(1-pyridin-4-yl-piperidin-4-yl)-ethyl]-2,3-dihydro-1H-indene-5-carboxylic acid amide] | 99% | 93% |
| CN(C(=O)c1ccc2c(c1)[C@H](NC(=O)c1ccccc1C(C)(C)C)CC2)C1CCN(c2ccncc2)CC1 [Example H-67, (3R)-3-[(2-tert-Butyl-benzoyl)amino]-N-methyl-N-(1-pyridin-4-yl-piperidin-4-yl)-2,3-dihydro-1H-indene-5-carboxylic acid amide] | 102% | 100% |

— patent US8680159B2, “Bradykinin 1 receptor modulating compounds” (Gruenenthal GmbH, priority 2010, dated 2014)
